# Source: publication PMC9814779, “A triple farnesoid X receptor and peroxisome proliferator-activated receptor α/δ activator reverses hepatic fibrosis in diet-induced NASH in mice” (Communications Chemistry, 2020)
# System: PPARδ-regulated genes in C2C12 cells
# Assay: PPARδ-regulated gene expression in differentiated C2C12 cells (qRT-PCR)
# Type: cell-based, murine
# Conditions: C2C12 myotubes, 1 μM, 8 h
# Description: HepG2 cells (DSMZ) were grown in DMEM high glucose, supplemented with 10% FCS, 1 mM SP, penicillin (100 U/mL), and streptomycin (100 μg/mL) at 37 °C and 5% CO2 and seeded in 6-well plates (2 × 10^6 per well). After 24 h, medium was changed to Minimal Essential Medium supplemented with 1% charcoal-stripped FCS, penicillin (100 U/mL), streptomycin (100 μg/mL), and 2 mM L-glutamine. After an additional 24 h, cells were incubated with test compound 41 (0.1 µM, 0.3 µM, 1 μM), OCA (1 μM), or elafibranor (1 µM) dissolved in the same medium with 0.1% DMSO or medium with 0.1% DMSO alone as untreated control for 12 h, harvested, washed with cold phosphate-buffered saline (PBS), and then directly used for RNA extraction. C2C12 cells (American Type Culture Collection, ATCC) were grown in DMEM high glucose, supplemented with 10% FCS, 1 mM SP, penicillin (100 U/mL), and streptomycin (100 μg/mL) at 37 °C and 5% CO2 and seeded in 6-well plates (1 × 10^6 per well). […] FXR- and PPAR-regulated gene expression was then studied by quantitative real-time PCR (qRT-PCR) analysis with a StepOnePlus System (Life Technologies, Carlsbad, CA, USA) using PowerSYBRGreen (Life Technologies; 12.5 μL per well). […] Data were analyzed by the comparative ΔΔCT method with glyceraldehyde 3-phosphate dehydrogenase (GAPDH) as reference gene. […]
smiles,measurement,setting,value
"CC(C)(C)c1ccc(C(=O)Nc2cccc(CCC(=O)O)c2)c(NC(=O)c2ccc(-c3ccco3)cc2)c1 [compound 41, 3-(3-[4-{tert-Butyl}-2-{4-(2-furyl)}benzamido]phenyl)propanoic acid]",upregulation of PCK and GLUT3 mRNA,,"comparable efficacy as the selective PPARδ agonist L165,041"
same,effect on LPL expression,"compared with L165,041",less pronounced
